Test results as given in ChEMBL document CHEMBL4000165, “Chemosensitizing effect of Paris Saponin I on Camptothecin and 10-hydroxycamptothecin in lung cancer cells via p38 MAPK, ERK, and Akt signaling pathways” (Eur J Med Chem, 2017).
Active and inactive are the calls of the source. The calls are words filed in the database; no cut-off is given here.

Assays:
[1] = system: NCI-H1299; assay: Induction of apoptosis in human NCI-H1299 cells at 0.3 uM after 24 to 48 hrs by Annexin-V FITC/propidium iodide staining based flow cytometry; format: functional, cell-based
[2] = organism: Homo sapiens; assay: Decrease in Akt phosphorylation in human NCI-H460 cells at 0.6 uM in presence of HCPT by Western blot method; format: cell-based
[3] = system: NCI-H460; assay: Induction of apoptosis in human NCI-H460 cells assessed as activation of caspase-3/7 at 0.6 uM after 48 hrs in presence of CPT by luciferase reporter gene assay; format: functional, cell-based
[4] = system: NCI-H460; assay: Induction of apoptosis in human NCI-H460 cells at 0.6 uM in presence of HCPT by Annexin-V FITC/propidium iodide staining based flow cytometry; format: functional, cell-based; settings: TDE = time-dependent effect
[5] = target: T1, Mitogen-activated protein kinase; ERK1/ERK2 (Homo sapiens) (UniProt P27361+P28482); assay: Decrease in ERK1/2 phosphorylation in human NCI-H460 cells at 0.6 uM in presence of CPT by Western blot method; format: cell-based
T1 sequence (P27361 whole entry, looked up): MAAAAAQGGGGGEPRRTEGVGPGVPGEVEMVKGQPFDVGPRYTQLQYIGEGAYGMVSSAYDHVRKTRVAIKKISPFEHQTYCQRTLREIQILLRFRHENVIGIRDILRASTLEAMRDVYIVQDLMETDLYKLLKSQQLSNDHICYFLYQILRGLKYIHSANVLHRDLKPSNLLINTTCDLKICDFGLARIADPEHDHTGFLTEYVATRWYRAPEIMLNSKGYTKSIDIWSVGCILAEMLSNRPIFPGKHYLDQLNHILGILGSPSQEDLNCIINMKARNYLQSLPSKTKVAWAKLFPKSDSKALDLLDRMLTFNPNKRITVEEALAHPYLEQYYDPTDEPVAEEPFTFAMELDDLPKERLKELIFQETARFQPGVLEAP
T1 sequence (P28482 whole entry, looked up): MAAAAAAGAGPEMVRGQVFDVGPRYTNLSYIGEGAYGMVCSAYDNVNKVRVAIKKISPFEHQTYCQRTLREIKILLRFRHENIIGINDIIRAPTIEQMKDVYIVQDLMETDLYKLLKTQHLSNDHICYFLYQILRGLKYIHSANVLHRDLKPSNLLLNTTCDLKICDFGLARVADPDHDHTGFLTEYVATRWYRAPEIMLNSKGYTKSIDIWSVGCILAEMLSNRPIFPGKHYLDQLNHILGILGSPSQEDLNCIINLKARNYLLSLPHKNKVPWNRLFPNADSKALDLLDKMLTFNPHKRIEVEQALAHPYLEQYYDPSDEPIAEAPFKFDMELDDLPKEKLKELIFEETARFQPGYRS

[6] = target: T2, c-Jun N-terminal kinase, JNK (Homo sapiens) (UniProt P45983+P53779+P45984); assay: Increase in JNK phosphorylation in human NCI-H460 cells at 0.6 uM in presence of HCPT by Western blot method; format: cell-based
[7] = system: NCI-H446; assay: Effect on Akt protein expression in human NCI-H446 cells at 0.6 uM in presence of CPT by Western blot method; format: functional, cell-based
[8] = target: T1, Mitogen-activated protein kinase; ERK1/ERK2 (Homo sapiens); assay: Effect on ERK1/2 phosphorylation in human NCI-H446 cells at 0.6 uM in presence of HCPT by Western blot method; format: cell-based
[9] = target: T3, MAP kinase p38 (Homo sapiens) (UniProt O15264+Q15759+Q16539+P53778); assay: Increase in p38 MAPK phosphorylation in human NCI-H1299 cells at 0.3 uM in presence of CPT by Western blot method; format: cell-based
[10] = system: NCI-H460; assay: Cytotoxicity against human NCI-H460 cells assessed as reduction in cell viability by measuring combinantion index at 0.3 to 0.6 uM after 48 hrs in presence of CPT by MTT assay; format: functional
[11] = system: NCI-H1299; assay: Induction of apoptosis in human NCI-H1299 cells assessed as increase in pro-apoptotic cells at 0.3 uM after 48 hrs in presence of HCPT by Annexin-V FITC/propidium iodide staining based flow cytometry; format: functional, cell-based
[12] = system: NCI-H446; assay: Induction of apoptosis in human NCI-H446 cells assessed as increase in Bax expression at 0.6 uM in presence of CPT by Western blot method; format: functional, cell-based
[13] = system: NCI-H1299; assay: Cytotoxicity against human NCI-H1299 cells assessed as reduction in cell viability at 0.3 to 0.6 uM after 48 hrs in presence of HCPT by MTT assay; format: functional, cell-based
[14] = target: T3, MAP kinase p38 (Homo sapiens); assay: Increase in p38 MAPK phosphorylation in human NCI-H460 cells at 0.6 uM in presence of HCPT by Western blot method; format: cell-based
[15] = target: T1, Mitogen-activated protein kinase; ERK1/ERK2 (Homo sapiens); assay: Decrease in ERK1/2 phosphorylation in human NCI-H460 cells at 0.6 uM in presence of HCPT by Western blot method; format: cell-based
[16] = system: NCI-H460; assay: Induction of apoptosis in human NCI-H460 cells at 0.6 uM up to 20 mins in presence of HCPT by acridine orange/ ethidium bromide staining based fluorescence microscopic method relative to control; format: functional
[17] = system: NCI-H446; assay: Effect on p38 MAPK protein expression in human NCI-H446 cells at 0.6 uM in presence of HCPT by Western blot method; format: functional, cell-based
[18] = system: NCI-H460; assay: Cytotoxicity against human NCI-H460 cells assessed as reduction in cell viability after 48 hrs by MTT assay; format: functional, cell-based; settings: NCI-H460, 48 h
[19] = system: NCI-H460; assay: Cytotoxicity against human NCI-H460 cells assessed as reduction in cell viability at 0.3 to 0.6 uM after 48 hrs in presence of HCPT by MTT assay; format: functional, cell-based
[20] = system: NCI-H520; assay: Cytotoxicity against human NCI-H520 cells assessed as reduction in cell viability after 48 hrs by MTT assay; format: functional, cell-based; settings: NCI-H520, 48 h
[21] = system: NCI-H460; assay: Induction of apoptosis in human NCI-H460 cells at 0.6 uM up to 20 mins in presence of CPT by acridine orange/ ethidium bromide staining based fluorescence microscopic method relative to control; format: functional
[22] = organism: Homo sapiens; assay: Effect on Akt phosphorylation in human NCI-H446 cells at 0.6 uM in presence of CPT by Western blot method; format: cell-based
[23] = system: NCI-H446; assay: Effect on Akt protein expression in human NCI-H446 cells at 0.6 uM in presence of HCPT by Western blot method; format: functional, cell-based
[24] = system: NCI-H1299; assay: Induction of apoptosis in human NCI-H1299 cells at 0.3 uM up to 20 mins in presence of CPT by acridine orange/ ethidium bromide staining based fluorescence microscopic method relative to control; format: functional
[25] = system: NCI-H446; assay: Effect on ERK1/2 protein expression in human NCI-H446 cells at 0.6 uM in presence of HCPT by Western blot method; format: functional, cell-based
[26] = target: T2, c-Jun N-terminal kinase, JNK (Homo sapiens); assay: Increase in JNK phosphorylation in human NCI-H460 cells at 0.6 uM in presence of CPT by Western blot method; format: cell-based
[27] = system: NCI-H1299; assay: Decrease in p38 MAPK protein expression in human NCI-H1299 cells at 0.3 uM in presence of CPT by Western blot method; format: functional, cell-based
[28] = system: NCI-H1299; assay: Induction of apoptosis in human NCI-H1299 cells assessed as activation of caspase-3/7 at 0.3 uM after 48 hrs by luciferase reporter gene assay; format: functional, cell-based
[29] = system: NCI-H446; assay: Induction of apoptosis in human NCI-H446 cells at 0.6 uM up to 20 mins in presence of HCPT by acridine orange/ ethidium bromide staining based fluorescence microscopic method relative to control; format: functional
[30] = system: NCI-H446; assay: Induction of apoptosis in human NCI-H446 cells assessed as downregulation of Bcl2 expression at 0.6 uM in presence of CPT by Western blot method; format: functional, cell-based
[31] = system: NCI-H1299; assay: Induction of apoptosis in human NCI-H1299 cells assessed as pro-apoptotic cells at 0.3 uM after 48 hrs in presence of CPT by Annexin-V FITC/propidium iodide staining based flow cytometry; format: functional
[32] = system: NCI-H446; assay: Induction of apoptosis in human NCI-H446 cells assessed as increase in caspase-9 expression at 0.6 uM in presence of CPT by Western blot method; format: functional, cell-based
[33] = system: NCI-H446; assay: Effect on ERK1/2 protein expression in human NCI-H446 cells at 0.6 uM in presence of CPT by Western blot method; format: functional, cell-based
[34] = system: NCI-H446; assay: Induction of apoptosis in human NCI-H446 cells assessed as activation of caspase-3/7 at 0.6 uM after 48 hrs in presence of CPT by luciferase reporter gene assay; format: functional, cell-based
[35] = target: T3, MAP kinase p38 (Homo sapiens); assay: Effect on p38 MAPK phosphorylation in human NCI-H446 cells at 0.6 uM in presence of HCPT by Western blot method; format: cell-based
[36] = system: NCI-H446; assay: Induction of apoptosis in human NCI-H446 cells at 0.6 uM in presence of CPT by Annexin-V FITC/propidium iodide staining based flow cytometry; format: functional, cell-based; settings: TDE = time-dependent effect

**Q.** Which results are given for C[C@@H]1CC[C@@]2(OC1)O[C@H]1C[C@H]3[C@@H]4CC=C5C[C@@H](O[C@@H]6O[C@H](CO)[C@@H](O[C@@H]7O[C@@H](CO)[C@H](O)[C@H]7O)[C@H](O)[C@H]6O[C@@H]6O[C@@H](C)[C@H](O)[C@@H](O)[C@H]6O)CC[C@]5(C)[C@H]4CC[C@]3(C)[C@H]1[C@@H]2C?
**A.** Activity [1]: Active; Activity [2]: Active; Activity [3]: Active; Activity [4]: Tde; Activity [5]: Active; Activity [6]: Active; Activity [7]: inactive; Activity [8]: Active; Activity [9]: Active; CI [10]: <1; Activity [11]: Active; Activity [12]: Active; Activity [13]: Active; Activity [14]: Active; Activity [15]: Active; fold change (FC) [16]: 2; Activity [17]: inactive; IC50 [18]: < 1 µM; Activity [19]: Active; IC50 [20]: < 1 µM; fold change (FC) [21]: 2; Activity [22]: Active; Activity [23]: inactive; fold change (FC) [24]: 2; Activity [25]: Active; Activity [26]: Active; Activity [27]: Active; Activity [28]: inactive; fold change (FC) [29]: 2; Activity [30]: Active; Activity [31]: 60%; Activity [32]: Active; Activity [33]: Active; Activity [34]: Active; Activity [35]: inactive; Activity [36]: Tde
